Read-outs that look alike come from different tables or passages of the source.
Experiments:
[1] = type: physicochemical; conditions: for Solubility of added stearic acid in detergent solution (in words): stearic acid 10-20 mg/ml, overnight at 40° C.
Description: Detergents classified as ionic and non-ionic were tested, as well as carbohydrate and polyethylene glycol based non-ionic detergents.

[2] = MSDS / known values; cited from earlier work
[3] = 6.7% TRIZMA in 67% aqueous 2-propanol; (10% w/v)
Description: Different detergent or detergent/base stock solutions were mixed in culture tubes, vortexed for 1 minute, and allowed to completely dissolve over an additional 30 minutes. The stock solutions were either used undiluted or diluted with additional water or alcohol in predetermined ratios. Diluted solutions were again mixed by vortexing for 1 minute and then allowing the solution to sit for 30 minutes.
A representative aliphatic acid, the fatty acid stearic acid, was added to the tube in a predetermined quantity between 10 mg/ml and 20 mg/ml. […] Solutions were then cooled to room temperature (RT) and after 6 hours, they were evaluated again for evidence of precipitation.
The following experiment is similar to Experiment 1, except that addition of a non-toxic buffer and/or a short-chained alcohol was investigated to attempt to improve upon the above results. Various bases and alcohols were tested. […] A representative non-toxic base, TRIZMA® (SIGMA-ALDRICH®, St. Louis, Mo.), was first tested (also known as TRIS, and Tris(hydroxymethyl)aminomethane). […] For this test, the amount of contaminating aliphatic acid, stearic acid, added to the solution was increased to 100 mg/ml.

Compound	Parts surfactant needed to dissolve stearic acid ([1]; aqueous detergent solution)	Solubility of added stearic acid in detergent solution (in words) [1]	Solubility of added stearic acid in detergent solution (in words) ([1]; listed as n-dodecyl-N,N-dimethylamine-N-oxide)	LD50 [2] [mg/kg]	Stearic acid completely solubilized by TRIZMA base without detergent [3] [mg/mL]
CCCCCCCCCCCC[N+](C)(C)[O-] [C-12 dimethyl amine oxide, n-dodecyl-N,N-dimethylamine-N-oxide]	4 parts surfactant could dissolve 1 part stearic acid	Complete solubility at all concentrations of added stearic acid	quantitatively facilitated the solubilization	5000	
Tris(hydroxymethyl)aminomethane [TRIZMA base]					100
